According to patent US8884101B2, “Method of gene introduction into Triticum plant using Agrobacterium, and a method of producing transformed Triticum plant” (priority 2009, dated 2014):

Tested on: immature embryos of bread wheat (variety: Fielder)
Assay: GUS gene expression in wheat immature embryos; effect of adding plant hormone to coculture medium (Example 9)
Format: cell-based, bread wheat (Triticum aestivum)
Conditions: 5 days resting culture; for degree of GUS gene expression relative to coculture medium not containing plant hormones (FIG. 5): 0.5 μM in coculture medium, 10 immature embryos per group; for degree of GUS gene expression relative to coculture medium not containing plant hormones (FIG. 6) / degree of GUS gene expression relative to coculture medium not containing plant hormones (FIG. 4): 5 μM in coculture medium; for degree of GUS gene expression relative to coculture medium not containing plant hormones (FIG. 6): 18 or 19 immature embryos per group; for degree of GUS gene expression relative to coculture medium not containing plant hormones (FIG. 4): 16 or 17 immature embryos per group
Description: Bread wheat (variety: Fielder) was cultivated in a greenhouse equipped with an air conditioner, and the immature embryos (size: 1.5 to 3.0 mm) of the bread wheat were aseptically collected on the 14th day after flowering and were washed once with an Inf liquid medium. Pretreatment (centrifugation at 15000 rpm for 10 min) was performed to enhance the efficiency of gene introduction in an Inf liquid medium. Agrobacterium strain EHA101 (pIG121Hm) was suspended at about 1.0×10^9 cfu/mL in an Inf liquid medium containing 100 μM acetosyringone to prepare an inoculation source. The inoculation source was added to the immature embryos, and the mixture was stirred for 30 sec, followed by leaving to stand at room temperature for 5 min. The immature embryos inoculated with Agrobacterium were placed onto a Co-Cul coculture medium containing 100 μM acetosyringone, 5 μM AgNO3, and 5 μM CuSO4 and also containing 5 μM kinetin or 4PU; 0.5 μM 2,4-D, dicamba, or picloram; or 5 μM 2,4-D, dicamba, or picloram in such a manner that the scutellum faced upward, and were cocultured at 23° C. in the dark. As a control, a Co-Cul coculture medium not containing any plant hormone was used.
On the 2nd day from the beginning of the coculture, the radicles, germs, and embryonic axes were excised using a scalpel and tweezers. The immature embryos were placed onto a resting medium (the composition is the same as that described in Example 1), followed by cultivation at 25° C. in the dark for 5 days. Subsequently, 10 to 19 immature embryos were collected from each group and were immersed in a 0.1 M phosphate buffer (pH 6.8) containing 0.1% Triton X-100 at 37° C. for 1 hr. The phosphate buffer was removed, and a phosphate buffer containing 1.0 mM 5-bromo-4-chloro-3-indolyl-β-D-glucuronic acid (X-gluc) and 20% methanol was added thereto. After treatment at 37° C. for 24 hr, the immature embryos in each group were evaluated for expression of the GUS gene in six grades: 4 (expressed in 75% or more of scutellum), 3 (expressed in 50% to 74% of scutellum), 2 (expressed in 25% to 49% of scutellum), 1 (expressed in 5% to 24% of scutellum), 0.5 (expressed in 1% to 4% of scutellum), and 0 (no expression).
A part of the immature embryos in each test group was harvested on the 5th day of the resting culture, and the GUS gene was expressed. The vertical axis in each of FIGS. 4, 5, and 6 represents the average of GUS gene expression by each immature embryo evaluated in six grades: 4 (expressed in 75% or more of scutellum), 3 (expressed in 50% to 74% of scutellum), 2 (expressed in 25% to 49% of scutellum), 1 (expressed in 5% to 24% of scutellum), 0.5 (expressed in 1% to 4% of scutellum), and 0 (no expression), that is, efficiency of gene introduction shown by expression of the GUS gene.

Compound	degree of GUS gene expression relative to coculture medium not containing plant hormones (FIG. 5)	degree of GUS gene expression relative to coculture medium not containing plant hormones (FIG. 6)	degree of GUS gene expression relative to coculture medium not containing plant hormones (FIG. 4)
O=C(O)COc1ccc(Cl)cc1Cl [2,4-D, 2,4-dichlorophenoxyacetic acid]	equivalent to or slightly lower	slightly lower	–
O=C(Nc1ccccc1)Nc1ccncc1 [4PU]	–	–	slightly lower
COc1c(Cl)ccc(Cl)c1C(=O)O [dicamba]	equivalent to or slightly lower	slightly lower	–
c1coc(CNc2ncnc3[nH]cnc23)c1 [kinetin]	–	–	slightly lower
Nc1c(Cl)c(Cl)nc(C(=O)O)c1Cl [picloram]	equivalent to or slightly lower	slightly lower	–
